What was measured:
HL-60 cells [1] = experiment: viable cell count with Trypan Blue under a microscope; type: cell-based, human; details: final concentration 250 μM or 125 μM
Protocol: Agarobiose, agarotetraose, agarohexaose and agarooctaose (hereinafter, sometimes, these oligosuccharaides are referred to as agarooligosaccharides) obtained in Example 5 were dissolved in water at a concentration of 2.5 mM or 1.25 mM separately, and were sterilized by filtration. HL-60 cells were suspended in RPMI 1640 medium containing 10% fetal bovine serum at a concentration of 2.5×10^5 cells/4.5 ml and to this suspension was added 0.5 ml of each of the oligosaccharide solutions. The resultant mixture were incubated with 5% CO2 at 37° C. for 24 hours or 48 hours. A part of the cell culture was taken up, followed by addition of Trypan Blue thereto and observing under a microscope to count the number of viable cells.
That is, FIG. 14 illustrates the relation between the incubation time and the number of viable cells when HL-60 cells were cultured with addition of one of the oligosaccharides at the final concentration of 250 μM. FIG. 15 illustrates the relation between the incubation time and the number of viable cells when HL-60 cells were cultured with addition of one of the oligosaccharides at the final concentration of 125 μM. In FIGS. 14 and 15, the horizontal axes represent the incubation time (hrs.) and the vertical axes represent the number of viable cells (× 10^5/5 ml). The closed circle (●) represents the addition of water (control), the open diamond (⋄) represents the addition of agarobiose, the open circle (◯) represents the addition of agarotetraose, the open triangle (Δ) represents the addition of agarohexaose and the open square (□) represents the addition of agarooctaose.

MCF7 = experiment: antiproliferation assay, MTT method; type: cell-based, human
Protocol: (§1) Each fraction was sterilized by filtration and its 10 μl portion was placed in a well of a 96 well microtiter plate. […] The cell morphology was observed under an optical microscope. […] The absorbance at 590 nm was measured to determine a cell proliferation rate. (2) A 50 mM solution of agarobiose, agarotetraose or agarohexaose obtained in Example 3-(1) was sterilized by filtration and diluted 2-, 4-, 8-, 16-, 32-, 64- and 128-folds with sterilized water. […] [table] The number in Table 3 represents the dilution rate of the dilution added to the group whose absorbance at 590 nm was less than one-half of that of the control group to which water was added. […] Then, for agarobiose, agarotetraose and agarohexaose, the concentrations required for 50% proliferation inhibitory rate (IC50) are calculated based on the change in the absorbance at 590 nm, and are shown in Table 4.

WiDr = experiment: antiproliferation assay, MTT method; type: cell-based, human
Protocol: as §1

HCT116 = experiment: antiproliferation assay, MTT method; type: cell-based, human
Protocol: as §1

HeLa S3 = experiment: antiproliferation assay, MTT method; type: cell-based, human
Protocol: as §1

MKN45 = experiment: antiproliferation assay, MTT method; type: cell-based, human
Protocol: as §1

RPMI1788 = experiment: antiproliferation assay, MTT method; type: cell-based, human
Protocol: as §1

T-47D = experiment: antiproliferation assay, MTT method; type: cell-based, human
Protocol: as §1

A549 = experiment: antiproliferation assay, MTT method; type: cell-based, human
Protocol: as §1

T24 = experiment: antiproliferation assay, MTT method; type: cell-based, human
Protocol: as §1

HT-29 = experiment: antiproliferation assay, MTT method; type: cell-based, human
Protocol: as §1

HepG2 = experiment: antiproliferation assay, MTT method; type: cell-based, human
Protocol: as §1

iNOS = iNOS expression by western blotting and RT-PCR; type: cell-based; details: protein level by western blotting, messenger RNA level by RT-PCR
Protocol: The confirmation was carried out at protein level by western blotting and at messenger RNA level by RT-PCR. That is, the compounds used in the present invention are useful for treating and preventing diseases that require inhibition of NO production by inhibiting expression of iNOS which is overexpressed by various factors to produce excess NO.

RAW264.7 = experiment: antiproliferation assay, MTT method; type: cell-based, mouse
Protocol: as §1

HT-1080 = experiment: antiproliferation assay, MTT method; type: cell-based
Protocol: as §1

A-172 = experiment: antiproliferation assay, MTT method; type: cell-based
Protocol: as §1

HL-60 cells [2] = experiment: antiproliferation assay, MTT method, absorbance at 590 nm; type: cell-based, human; details: HL-60
[3] = dilution rate 1 corresponds to 5 mM in medium
[4] = read-out: IC50 (concentration required for 50% proliferation inhibitory rate)

- IC50 (MCF7; [4]): 238 µM
- IC50 (HCT116; [4]): 136 µM
- IC50 (HeLa S3; [4]): 334 µM
- IC50 (MKN45; [4]): 166 µM
- IC50 (T-47D; [4]): 158 µM
- IC50 (A549; [4]): 279 µM
- IC50 (T24; [4]): 365 µM
- IC50 (HT-29; [4]): 144 µM
- IC50 (HepG2; [4]): 430 µM
- IC50 (HT-1080; [4]): 185 µM
- IC50 (HL-60 cells [2]; [4]): 78 µM
SMILES: OC[C@H]1O[C@@H](O[C@H]2[C@H]3OC[C@@H]2O[C@@H](O[C@H]2[C@@H](O)[C@@H](CO)O[C@@H](O[C@H]4[C@H]5OC[C@@H]4O[C@@H](O[C@H]4[C@@H](O)[C@@H](CO)O[C@@H](O[C@H]6[C@H]7OC[C@@H]6OC(O)[C@H]7O)[C@@H]4O)[C@H]5O)[C@@H]2O)[C@H]3O)[C@H](O)[C@@H](O)[C@H]1O (mixture of isomers) [Agarohexaose, agarohexaose]
- apoptosis corpuscles (HL-60 cells [1]): apoptosis corpuscles were observed
- number of viable cells as compared with the group to which water was added (HL-60 cells [1]; 24 hours or 48 hours): decreased
- dilution rate of the dilution added to the group whose absorbance at 590 nm was less than one-half of that of the control group (MCF7; [3]): 16
- dilution rate of the dilution added to the group whose absorbance at 590 nm was less than one-half of that of the control group (WiDr; [3]): 16
- IC50 (WiDr; [4]): 334 µM
- dilution rate of the dilution added to the group whose absorbance at 590 nm was less than one-half of that of the control group (HCT116; [3]): 32
- dilution rate of the dilution added to the group whose absorbance at 590 nm was less than one-half of that of the control group (HeLa S3; [3]): 16
- dilution rate of the dilution added to the group whose absorbance at 590 nm was less than one-half of that of the control group (MKN45; [3]): 16
- dilution rate of the dilution added to the group whose absorbance at 590 nm was less than one-half of that of the control group (RPMI1788; [3]): 128
- IC50 (RPMI1788; [4]): 22 µM
- dilution rate of the dilution added to the group whose absorbance at 590 nm was less than one-half of that of the control group (T-47D; [3]): 16
- dilution rate of the dilution added to the group whose absorbance at 590 nm was less than one-half of that of the control group (A549; [3]): 16
- dilution rate of the dilution added to the group whose absorbance at 590 nm was less than one-half of that of the control group (T24; [3]): 8
- dilution rate of the dilution added to the group whose absorbance at 590 nm was less than one-half of that of the control group (HT-29; [3]): 32
- dilution rate of the dilution added to the group whose absorbance at 590 nm was less than one-half of that of the control group (HepG2; [3]): 16
- inhibition of iNOS expression (iNOS): inhibit this iNOS expression
- dilution rate of the dilution added to the group whose absorbance at 590 nm was less than one-half of that of the control group (RAW264.7; [3]): 32
- IC50 (RAW264.7; [4]): 109 µM
- dilution rate of the dilution added to the group whose absorbance at 590 nm was less than one-half of that of the control group (HT-1080; [3]): 16
- dilution rate of the dilution added to the group whose absorbance at 590 nm was less than one-half of that of the control group (A-172; [3]): 16
- IC50 (A-172; [4]): 151 µM
- dilution rate of the dilution added to the group whose absorbance at 590 nm was less than one-half of that of the control group (HL-60 cells [2]; 50 mM solution diluted 2- to 128-fold, dilution rate 1 corresponds to 5 mM in the cell culture medium): 64
